Structures can show the parent of a compound that is named as a salt.
Columns and labels:
[1] = test system: animal models of type II diabetes; details: in vivo; cited from earlier work
β3 [2] = biological target: T1, β3 (Rattus norvegicus, UniProt P26255); details: Nature, Vol. 309, 163, 1984; cited from earlier work
T1 construct: determined by their activity to stimulate adipocyte lipolysis; from tissue; host or cells: adipocytes isolated with collagenase from rat epididymal fat pads

[3] = in vivo; cited from earlier work
β3 [4] = details: cited from earlier work
β1 or β2 = details: thought to cause side-effects; cited from earlier work
β3 [5] = biological target: T1, β3; assay: β3 agonisitic activity in rats (stimulation of adipocyte lipolysis, rat epididymal fat pads); assay type: cell-based; details: rat adipocytes, 37° C., 120 minutes; EC50 relative to compound's own maximum rate of lipolysis; hydrochloride; read-out: Lipolysis Molar EC50 value
Method: β3 agonisitic activity in rats
The β3 agonisitic effect of the compounds of the present invention was determined by their activity to stimulate adipocyte lipolysis. Rat epididymal fat pads were excised and placed in a buffer containing the following composition: 130 mM sodium chloride, 4.7 mM potassium chloride, 1.25 mM magnesium sulfate, 2.8 mM calcium chloride, 10 mM HEPES, 2.5 mM sodium dihydrogenphosphate, 1 g/l glucose and 1% fatty acid-free serum albumin (pH 7.6). All the following procedures were carried out in the above-mentioned buffer. 5 g of a tissue was transferred to a plastic bottle with 10 ml of the buffer solution in which 0.1% collagenase (available from Worthington Biochemical corporation) was added.
The tissue was incubated at 37° C. for about 75 minutes with gentle shaking. After the cell suspension was filtered through nylon meshes (No. 100), the cells were washed three times with two volumes of the buffer, and it was again filtered through nylon meshes. The volume was adjusted with the buffer so that the adipocyte was brought to 20% volume. A 0.1 ml aliquot of the cell suspension was added to plastic test tubes with 0.3 ml of the buffer containing vehicle or compound. The cells were incubated at 37° C. for 120 minutes with gentle shaking. The reaction solution (0.3 ml) was transferred to a centrifuge tube with […] of silicone oil (specific gravity 0.96, available from Shinetsu Chemical Industry), centrifuged at 18,500×g for one minute, and the reaction was stopped by removing the adipocyte from the buffer.
The amount of glycerol generated from the hydrolysis of triglycerides in the buffer was determined by a method using glycerol-3-phosphate oxidase/p-chlorophenol. […] of the buffer was added to a 96-well plate which contained 0.2 ml of an assay mixture having the following composition: 50 mM Tris (pH 7.5), 5.4 mM p-chlorophenol, 250 mg/ml adenosine-5'-triphosphate disodium, 150 mg 4-aminoantipyrine, 250 U/l glycerol kinase, 500 U/l glycerol-3-phosphate oxidase, 1250 U/l horseradish peroxidase. The plate was incubated at 37° C. for 15 minutes, and then an absorbance at 505 nm was determined. The molar EC50 value is the molar concentration of compound that gives 50% of that compound's own maximum rate of lipolysis.

human β3 receptor = biological target: T2, human β3 receptor (Homo sapiens, UniProt P13945); assay: β3 agonistic activity on human β3 receptor (cAMP production in SK-N-MC human neuroblastoma cells); assay type: cell-based; details: 0.5 h, 10^-6 M, 37° C., 30 minutes, vs maximum of isopreterenol at 10^-6 M, hydrochloride, read-out: Ability of cAMP production at 10^-6 M, % (vs. Isopreterenol (ISP))
T2 construct: The human neuroblastoma cells (SK-N-MC) was available from American Type Culture Collection (HTB 10); host or cells: SK-N-MC human neuroblastoma cells
T2 sequence (P13945 whole entry): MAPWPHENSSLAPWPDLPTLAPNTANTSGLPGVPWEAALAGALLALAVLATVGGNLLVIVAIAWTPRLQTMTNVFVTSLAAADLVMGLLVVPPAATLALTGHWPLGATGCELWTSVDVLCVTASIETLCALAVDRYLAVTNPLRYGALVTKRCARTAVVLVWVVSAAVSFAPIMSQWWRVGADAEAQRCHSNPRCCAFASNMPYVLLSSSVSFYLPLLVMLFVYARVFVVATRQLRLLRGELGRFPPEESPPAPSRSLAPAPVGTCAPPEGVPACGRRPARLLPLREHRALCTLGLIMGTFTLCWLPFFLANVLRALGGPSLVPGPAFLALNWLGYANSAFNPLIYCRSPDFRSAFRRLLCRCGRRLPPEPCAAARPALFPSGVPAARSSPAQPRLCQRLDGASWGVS
Method: β3 agonistic activity on human β3 receptor
The β3 agonistic activity of the compounds was determined by their abilities to stimulate the intracellular cAMP production of human neuroblast. The human neuroblastoma cells (SK-N-MC) was available from American Type Culture Collection (HTB 10), and the cells were cultured under the atmosphere of 5% CO2 at 37° C. on a 12-well plate in Dulbeccos' modified Eagle's medium containig 10% fetal calf serum. The SK-N-MC cells on reaching semi-confluence were washed twice with 1 ml of Hank's balanced salt solution (HBSS). After the cells were treated with 0.8 ml of HBSS containing 0.25 mM isobutylmethyl-xanthine at room temperature for 5 minutes, 0.1 ml of a test solution was added. Further, after incubation at 37° C. for 30 minutes, the reaction solution was aspirated, and washed twice with 2 ml of an ice-cooled phosphate-buffered saline (PBS). The cells were disrupted with 5 mM Tris buffer (pH 7.4) containing 2 mM EDTA, centrifuged at 18,500×g for one minute, and cAMP concentration in the supernatant was determined by EIA kit (available from Amersham). The ability of cAMP production was determined as a percentage of the compound to maximum activity of cAMP production of isopreterenol at 10^-6 M concentration (Proc. Natl. Acad. Sci. USA, 90, 3665, 1993).

[6] = test system: male KKAy mice with hyperglycemia; assay: Anti-hyperglycemic activity in male KKAy mice; assay type: in vivo, mouse; details: 1 mg/kg, orally for 4 days, measured on 5th day; hydrochloride
Method: The anti-hyperglycemic effect of the present compounds was determined using male KKAy mice with hyperglycemia of 300 mg/dl or more. The compound was orally administrated successively to the hyperglycemic mice for 4 days, and the blood glucose level was measured on the 5th day. The activity of the compounds was compared in terms of percent reduction in blood glucose level (a percentage of the blood glucose level after administration to that before administration). The measurement of blood glucose level was made by the method in which tail vein of mice was dissected with a scalpel and the blood was dropped onto an electrode of glucose sensor (Touekou Super, available from Kodama).

T1 sequence (P26255 whole entry): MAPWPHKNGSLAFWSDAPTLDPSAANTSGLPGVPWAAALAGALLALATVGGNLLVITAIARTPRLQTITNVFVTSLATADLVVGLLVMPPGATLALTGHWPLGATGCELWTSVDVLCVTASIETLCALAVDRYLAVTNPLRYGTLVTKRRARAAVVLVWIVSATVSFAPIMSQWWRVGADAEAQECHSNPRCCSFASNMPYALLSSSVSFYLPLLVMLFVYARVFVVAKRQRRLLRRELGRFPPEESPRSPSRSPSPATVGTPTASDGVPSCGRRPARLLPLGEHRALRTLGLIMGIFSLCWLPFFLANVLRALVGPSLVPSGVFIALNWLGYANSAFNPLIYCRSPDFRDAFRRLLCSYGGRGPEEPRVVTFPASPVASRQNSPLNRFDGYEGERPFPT

Row | Structure (SMILES) | EC50 (β3 [5]) [nM] | Percent reduction in blood glucose level, % [6] [%] | also measured
1 | COC(=O)COc1ccc(C[C@@H](C)NC[C@H](O)c2cccc(Cl)c2)cc1 (relative stereo) [BRL 35135] |  |  | anti-hyperglycemic activity, in words [1]: anti-hyperglycemic activity; lipolytic activity (β3) in rats, in words (β3 [2]): lipolytic activity (β3) in rats; anti-obesity activity, in words [3]: anti-obesity activity; β3 agonistic activity, in words (β3 [4]): has β3 agonistic activity; β1 or β2 agonistic activity, in words (β1 or β2): has β1 or β2 agonistic activity
2 | C[C@H](Cc1ccc(OCC(=O)O)cc1)NC[C@H](O)c1cccc(Cl)c1 (relative stereo) [BRL 37344] |  |  | anti-hyperglycemic activity, in words [1]: anti-hyperglycemic activity; anti-obesity activity, in words [3]: anti-obesity activity
3 | COC(=O)C1COc2cc(CC(C)NCC(O)c3cccc(OC)c3)ccc2O1 (stereo not drawn) [Example 1, 6-{2-[2-Hydroxy-2-(3-methoxyphenyl)ethyl]amino}propyl-2,3-dihydro-1,4-benzodioxin-2-carboxylic acid methyl ester] | 46 | 53 | Emax at 1 µM (human β3 receptor): 21%
4 | COC(=O)C1COc2cc(CC(C)NCC(O)c3cccc(C)c3)ccc2O1 (stereo not drawn) [Example 2, 6-{2-[2-Hydroxy-2-(3-tolyl)ethyl]amino}propyl-2,3-dihydro-1,4-benzodioxin-2-carboxylic acid methyl ester] | 4 |  | Emax at 1 µM (human β3 receptor): 25%
5 | CCOC(=O)C1COc2cc(CC(C)NCC(O)c3ccccc3)ccc2O1 (stereo not drawn) [Example 3, 6-[2-(2-Hydroxy-2-phenylethyl)amino]propyl-2,3-dihydro-1,4-benzodioxin-2-carboxylic acid ethyl ester] | 9 | 63 | 
6 | CCOC(=O)C1COc2ccc(CC(C)NCC(O)c3ccccc3)cc2O1 (stereo not drawn) [Example 4, 7-[2-(2-Hydroxy-2-phenylethyl)amino]propyl-2,3-dihydro-1,4-benzodioxin-2-carboxylic acid ethyl ester] | 56 |  | 
7 | COC(=O)C1COc2cc(CC(C)NCC(O)c3ccc4c(c3)OCO4)ccc2O1 (stereo not drawn) [Example 5, 6-[2-(2-Hydroxy-2-piperonylethyl)amino]propyl-2,3-dihydro-1,4-benzodioxin-2-carboxylic acid methyl ester] | 100 |  | 
8 | COC(=O)C1COc2cc(CC(C)NCC(O)c3cccc(Cl)c3)ccc2O1 (stereo not drawn) [Example 10, 6-{2-[2-(3-Chlorophenyl)-2-hydroxyethyl]amino}propyl-2,3-dihydro-1,4-benzodioxin-2-carboxylic acid methyl ester] |  | 48 | Emax at 1 µM (human β3 receptor): 43%
9 | COC(=O)C1COc2cc(CC(C)NCC(O)c3cccc(C(F)(F)F)c3)ccc2O1 (stereo not drawn) [Example 11, 6-{2-[2-Hydroxy-2-(3-trifluoromethylphenyl)ethyl]amino}propyl-2,3-dihydro-1,4-benzodioxin-2-carboxylic acid methyl ester] | 2.4 |  | 
10 | COC(=O)C1COc2cc(CC(C)NCC(O)c3ccc(F)cc3)ccc2O1 (stereo not drawn) [Example 12, 6-{2-[2-Hydroxy-2-(4-fluorophenyl)ethyl]amino}propyl-2,3-dihydro-1,4-benzodioxin-2-carboxylic acid methyl ester] | 26 |  | Emax at 1 µM (human β3 receptor): 29%
11 | CCOC(=O)[C@H]1COc2cc(C[C@@H](C)NC[C@H](O)c3cccc(Cl)c3)ccc2O1 [Example 28, (2R,2'R,2"R)-6-{2-[2-(3-Chlorophenyl)-2-hydroxyethyl]amino}propyl-2,3-dihydro-1,4-benzodioxin-2-carboxylic acid ethyl ester hydrochloride] | 0.1 | 42 | 
12 | CCOC(=O)[C@H]1COc2cc(C[C@H](C)NC[C@H](O)c3cccc(Cl)c3)ccc2O1 [Example 29, (2R,2'S,2"R)-6-{2-[2-(3-Chlorophenyl)-2-hydroxyethyl]amino}propyl-2,3-dihydro-1,4-benzodioxin-2-carboxylic acid ethyl ester] | 1.7 | 54 | 
13 | CCOC(=O)[C@@H]1COc2cc(C[C@@H](C)NC[C@H](O)c3cccc(Cl)c3)ccc2O1 [Example 30, (2S,2'R,2"R)-6-{2-[2-(3-Chlorophenyl)-2-hydroxyethyl]amino}propyl-2,3-dihydro-1,4-benzodioxin-2-carboxylic acid ethyl ester] | 16 |  | 
14 | CCOC(=O)[C@@H]1COc2cc(C[C@H](C)NC[C@H](O)c3cccc(Cl)c3)ccc2O1 [Example 31, (2S,2'S,2"R)-6-{2-[2-(3-Chlorophenyl)-2-hydroxyethyl]amino}propyl-2,3-dihydro-1,4-benzodioxin-2-carboxylic acid ethyl ester] | 100 |  | 

— patent US6130243A, “1,4-benzodioxin derivatives” (Nisshin Flour Milling Co., Ltd., priority 1995, dated 2000)
